Measured values: ChEMBL document CHEMBL4706632, “Development of Potential Antitumor Agents from the Scaffolds of Plant-Derived Terpenoid Lactones” (J Med Chem, 2020)

Experiments:
PANC-1 = test: Cytotoxicity against human Panc-1 cells incubated for 48 hrs by CCK8 assay; format: functional, cell-based; conditions: PANC-1, 48 h
[1] = Antiproliferative activity against human Panc-28 cells incubated for 72 hrs by MTT assay; format: functional, cell-based; conditions: MDA-Panc-28, 72 h
MDA-MB-231 = test: Cytotoxicity against human MDA-MB-231 cells incubated for 48 hrs by MTT assay; format: functional, cell-based; conditions: MDA-MB-231, 48 h
LNCaP C4-2B = test: Cytotoxicity against human LNCaP C4-2B cells incubated for 48 hrs by MTT assay; format: functional, cell-based
HCT-15 [2] = test: Cytotoxicity against human HCT-15 cells incubated for 48 hrs by MTT assay; format: functional, cell-based; conditions: HCT-15, 48 h
HCT-15 [3] = test: Cytotoxicity against human HCT-15 cells by SRB staining assay; format: functional, cell-based
A549 = test: Cytotoxicity against human A549 cells by SRB staining assay; format: functional, cell-based
SK-OV-3 = test: Cytotoxicity against human SK-OV-3 cells by SRB staining assay; format: functional, cell-based
XF498 = test: Cytotoxicity against human XF498 cells by SRB staining assay; format: functional, cell-based
SK-MEL-2 = test: Cytotoxicity against human SK-MEL-2 cells by SRB staining assay; format: functional, cell-based
LNCaP = test: Cytotoxicity against human LNCAP cells incubated for 48 hrs clonogenic survival assay; format: functional, cell-based; conditions: 48 h
HepG2 [4] = test: Cytotoxicity against human HepG2 cells by MTT assay; format: functional, cell-based
BGC-823 = test: Cytotoxicity against human BGC-823 cells by MTT assay; format: functional, cell-based
HCT-116 = test: Cytotoxicity against human HCT-116 cells by MTT assay; format: functional, cell-based
HeLa = test: Cytotoxicity against human HeLa cells incubated for 48 hrs by SRB assay; format: functional, cell-based
HepG2 [5] = test: Cytotoxicity against human HepG2 cells incubated for 48 hrs by SRB assay; format: functional, cell-based; conditions: HepG2, 48 h
IMR-32 = test: Cytotoxicity against human IMR-32 cells incubated for 48 hrs by SRB assay; format: functional, cell-based; conditions: IMR-32, 48 h
[6] = Inhibition of PAFR in New Zealand rabbit platelets assessed as reduction in PAF-induced platelet aggregation measured within 5 mins by aggregometry analysis; format: tissue-based; conditions: Oryctolagus cuniculus
[7] = Inhibition of [3H]PAF-acether binding to PAFR in rabbit platelet plasma membranes incubated for 1 hr; format: cell membranes, Oryctolagus cuniculus, Cell membrane
P388 = test: Antiproliferative activity against mouse P388 cells; format: functional, cell-based
MDA-MB-435 = test: Antiproliferative activity against human MDA-MB-435 cells incubated for 48 hrs by [3H]-thymidine incorporation assay; format: functional, cell-based
MCF7 [8] = test: Antiproliferative activity against human MCF7 cells incubated for 48 hrs by [3H]-thymidine incorporation assay; format: functional, cell-based
MCF7 [9] = test: Cytotoxicity against human MCF7 cells incubated for 48 hrs by alamarblue reagent based assay; format: functional, cell-based; conditions: MCF7, 48 h
HepG2 [10] = test: Cytotoxicity against human HepG2 cells incubated for 48 hrs by alamarblue reagent based assay; format: functional, cell-based; conditions: HepG2, 48 h

SMILES: CC(C)[C@]12O[C@H]1[C@@H]1O[C@]13[C@]1(O[C@H]1C[C@H]1C4=C(CC[C@@]13C)C(=O)OC4)[C@@H]2O [TRIPTOLIDE]
- IC50 (PANC-1): 200 nM

SMILES: CC1(C)O[C@H]2CC(=O)OC[C@]23[C@H]2CC[C@@]4(C)[C@H](C5=CC(=O)OC5O)OC(=O)[C@H]5O[C@]54[C@]2(C)C(=O)C[C@@H]13 (some centres undefined)
- IC50 [1]: 22000 nM

SMILES: CC1=C2C(=C[C@H]3[C@]4(C)CCCC(C)(C)[C@H]4CC[C@]34O[C@H]24)OC1=O
- IC50 (MDA-MB-231): > 50000 nM
- IC50 (LNCaP C4-2B): 10000 nM
- IC50 (HCT-15 [2]): > 50000 nM

SMILES: CC(=O)O[C@@H]1C[C@H](O)[C@@]23COC(O)[C@]1(C)[C@@H]2C[C@@H](O)[C@@]1(C)[C@@H]2C(=O)C[C@@H](c4ccoc4)[C@]2(C)[C@@H](O)C(=O)[C@@H]13 (some centres undefined)
- IC50 (HCT-15 [3]): 3000 nM
- IC50 (A549): 1700 nM
- IC50 (SK-OV-3): 26000 nM
- IC50 (XF498): 3800 nM
- IC50 (SK-MEL-2): 710 nM

SMILES: C/C=C(/C)C(=O)O[C@H]1C(C)=C2[C@H]([C@@H]1OC(=O)CCCCCCC)[C@@](C)(OC(C)=O)C[C@H](OC(=O)CCCCCCCCCCCNC(=O)[C@@H](N)CC(C)C)[C@@]1(O)[C@H]2OC(=O)[C@@]1(C)O
- IC50 (LNCaP): 14 nM

SMILES: CC(C)[C@]1(O)[C@H](O)[C@@H]2O[C@]23[C@]2(O[C@H]2C[C@H]2C4=C(CC[C@@]23C)C(=O)OC4)[C@@H]1O
- IC50 (HepG2 [4]): > 10000 nM
- IC50 (BGC-823): > 10000 nM
- IC50 (HCT-116): > 10000 nM

SMILES: C=C1[C@@H]2CC[C@@]3(C)[C@H](c4ccoc4)OC(=O)C[C@]13O[C@H]1C[C@H](OC(=O)CN3CCN(C(=O)c4ccccc4)CC3)C(C)(C)[C@H](CC(=O)OC)[C@]12C
- IC50 (HeLa): 14000 nM
- IC50 (HepG2 [5]): 10 nM
- IC50 (IMR-32): > 100000 nM

SMILES: CC(C)[C@]12O[C@H]1[C@@H]1O[C@]13[C@]1(O[C@H]1C[C@H]1C4=C(C(=O)OC4)[C@@H](O)C[C@@]13C)[C@@H]2O [TRIPDIOLIDE]
- IC50 (HepG2 [4]): 1700 nM
- IC50 (BGC-823): 910 nM
- IC50 (HCT-116): 730 nM

SMILES: CC1(C)CCC[C@]2(C)[C@@H]1CC[C@@]13O[C@@H]1C1=C(CO)C(=O)O[C@]14O[C@@H]4[C@@H]23
- IC50 (MDA-MB-231): > 50000 nM
- IC50 (LNCaP C4-2B): 12000 nM
- IC50 (HCT-15 [2]): > 50000 nM

SMILES: CC1(C)O[C@H]2CC(=O)OC[C@]23[C@H]2CC[C@@]4(C)[C@H](C5=CC(O)OC5=O)OC(=O)[C@H]5O[C@]54[C@]2(C)C(=O)C[C@@H]13 (some centres undefined)
- IC50 [1]: 18000 nM

SMILES: C[C@@H]1C(=O)O[C@H]2[C@H](O)[C@]34[C@@H]5OC(=O)[C@]3(O[C@@H]3OC(=O)[C@H](O)[C@@]34[C@H](C(C)(C)C)[C@H]5O)[C@@]12O
- IC50 [6]: 7500 nM
- IC50 [7]: 17000 nM

SMILES: C[C@@H]1C(=O)O[C@H]2C[C@@]34[C@H]5C[C@@H](C(C)(C)C)[C@]36[C@@H](OC(=O)[C@@H]6O)O[C@@]4(C(=O)O5)[C@]21O [GINKGOLIDE A]
- IC50 [6]: 580 nM
- IC50 [7]: 940 nM

SMILES: CC(=O)O[C@@H]1C[C@H](O)[C@@]23COC(O)[C@]1(C)[C@@H]2C[C@@H](O)[C@]1(C)[C@@H]3C(=O)C(O)[C@@]2(C)[C@H](c3ccoc3)C[C@H]3O[C@@]312 (some centres undefined)
- IC50 (HCT-15 [3]): 150 nM
- IC50 (A549): 75 nM
- IC50 (SK-OV-3): 470 nM
- IC50 (P388): 3.8 nM
- IC50 (XF498): 38 nM
- IC50 (SK-MEL-2): 19 nM

SMILES: CC(=O)OC1C(=O)[C@@H]2[C@@]34COC(O)[C@@](C)([C@H](OC(C)=O)C[C@@H]3O)[C@@H]4C[C@@H](O)[C@@]2(C)[C@@]23O[C@@H]2C[C@@H](c2ccoc2)[C@]13C (some centres undefined)
- IC50 (HCT-15 [3]): 70 nM
- IC50 (A549): 17 nM
- IC50 (SK-OV-3): 35 nM
- IC50 (XF498): 12 nM
- IC50 (SK-MEL-2): 1.2 nM

SMILES: CC1(C)O[C@H]2CC(=O)OC[C@]23[C@H]2CC[C@@](C)([C@@H](O[C@H]4O[C@H](CO)[C@@H](O)[C@H](O)[C@H]4O)c4ccoc4)[C@@]4(O[C@@H]4C(=O)O)[C@]2(C)C(=O)C[C@@H]13
- IC50 [1]: 20000 nM
- IC50 (MDA-MB-435): 119000 nM
- IC50 (MCF7 [8]): 55000 nM

SMILES: C/C1=C\CC[C@@]2(C)O[C@H]2[C@H]2OC(=O)C(CNc3ccn(C4OC(CO)[C@H](O)[C@@H]4O)c(=O)n3)[C@@H]2CC1 (some centres undefined)
- IC50 (MCF7 [9]): 5200 nM
- IC50 (HepG2 [10]): 240 nM
